According to patent publication US20250127167A1, “ANTIMICROBIAL PEPTIDES” (priority 2021, published 2025):
Entries after “also recorded” stand apart in the source; their conditions may differ. Like-named read-outs stand apart in the source and are kept apart here. Where a SMILES comes first, the peptide text is derived from it. [ ]: non-standard residue; d: D form. Phe(4-F) = N[C@@H](Cc1ccc(F)cc1)C(=O)O; Dopa = N[C@@H](Cc1ccc(O)c(O)c1)C(=O)O

Assays:
T4 bacteriophage [1] = test system: T4 bacteriophage
Description: All the tripeptide powders were firstly dissolved into ethanol and diluted by TDW. The solutions were stirring for 3 h (150 rpm, room temperature) for complete self-assembly. The final concentration is 10 mg/mL. […] As a control, single amino acids (L-DOPA, L-Phenylalanine, and 4-Fluoro-L-phenylalanine) were also used to examine their antiviral activity. To further evaluate the antiviral activity for the peptide assemblies, the antiviral MIC for traditional Ag and Cu nanoparticles were also tested. The stock solutions were two-fold diluted using LB phage to obtain a series of peptide concentrations until the lowest concentration needed was achieved. Next, the 100 μL T4 bacteriophage (10^5 PFU/mL) and 100 μL diluted peptide solutions were transferred into 800 μL LB phage and then the samples were shaken at 150 rpm at room temperature. After 24 h incubation, the samples were centrifuged at 14000 g for 10 min to precipitate the peptide particles. Supernatants were collected and then 10-fold diluted once. Then, the 20 μL supernatants were mixed with 25 μL bacteria (E. coli. ATCC11303) in 1 mL warm 0.6% agarose. Then the mixture was spread out on 1.5% LB agar to form a double agar layer. The plate was incubated at 37° C. for 18 h to form the plaques. The lowest concentration of peptides that prevented virus growth is defined as the antiviral minimum inhibitory concentration (MIC).
A series of two-fold diluted peptide solutions (1000, 500, 250, 125, 62.5, 31.25, 15.625, and 7.8125 µg/mL) was prepared to measure the antiviral MIC. Next, 100 μL T4 bacteriophage (10^5 PFU/mL) and 100 μL diluted peptide solutions were transferred into 800 μL LB phage; then, the samples were shaken at 150 rpm at room temperature. After 24 h incubation, the samples were centrifuged at 14000×g for 10 min to precipitate the peptide particles. Supernatants were collected and then 10-fold diluted once. Next, the 20 μL supernatants were mixed with 25 μL bacteria (E. coli. ATCC11303) in 1 mL of warm 0.6% agarose. Then, the mixture was spread out on 1.5% LB agar to form a double agar layer. The plate was incubated at 37° C. for 18 h to form plaques. The lowest concentration of peptides that prevented virus growth is defined as the antiviral minimum inhibitory concentration (MIC). L-DOPA, L-phenylalanine, L-Phe(4F), Phe(4F)-Phe(4F), and diphenylalanine were used as controls.

T4 bacteriophage [2] = experiment: Antiviral activity for coatings against T4 bacteriophage (bacteriophage plaque assay); type: cell-based, Escherichia coli bacteriophage T4; details: for virus titer of bacteriophage T4 on dipeptide coatings: 10 mg/mL drop-casted three times, bare glass 29000±2000 PFU/mL; for virus titer of bacteriophage T4 on dipeptide coatings / viral titer of T4 bacteriophage / virus titer of T4 bacteriophage: 24 h; for reduction of the viral titer by dipeptide coatings: versus bare glass; for virus titer of T4 bacteriophage: 3-layer coating on glass, bare glass 13579±2839
Description: The antiviral activity performance was measured according to work by Kim et al. and Matsumoto et al. with some modification. The peptide coatings were prepared as described before. We used T4 bacteriophage as the virus when we measured the antiviral activity. Bacteriophage suspension was propagated on E. coli (ATCC 11303) according to ISO 18061, which was grown as the host strain. The mixture obtained by adding 100 μL of fresh T4 phage to an overnight culture of E. coli was incubated for 4 h in a 10 mL LB phage at 37° C. After multiplication, the virus was collected by centrifugation at 4000×g for 10 min at room temperature. The concentration of T4 bacteriophage was measured using the soft agar overlay (double-agar layer) plaque assay method. The supernatant containing the bacteriophage culture was filtrated through cellulose acetate filters (Millipore Acrodisc; the pore sizes were 0.45 μm and 0.22 μm) before use (the final concentration of bacteriophage was 10^9 PFU/mL).
Ten decimal serial dilutions of the virus suspension were prepared by LB phage. The aqueous suspensions for the E. coli and T4 bacteriophage inactivation experiments contained sample surfaces having dimensions of 1*1 cm and T4 phage at 1.0×10^6 plaque-forming units (PFU)/mL. As a positive control, we also added 16 μL 1.0×10^6 plaque-forming units (PFU)/mL bacteriophage T4 on bare glass and then treated the surface by a UV irradiation (long wave ultraviolet 365 nm) for 3 h. Next, the phages were incubated under humid conditions at room temperature (25° C.) in a dark room for 24 h. After incubation, the phages were harvested by shaking with 2 mL SCDLP broth for 15 min to stop the incubation. The T4 in SCDLP bacteriophage was diluted with LB phage 10-fold. Subsequently, samples and bacteria were mixed with 0.6% agarose. Then the mixture was spread out on 1.5% LB agar to form a double agar layer. The plate was incubated at 37° C. for 18 h to form the plaques. The antiviral activity was defined and calculated as eq 2 below: The initial virus titer (No) and the virus titer after incubation (N) were calculated by counting the plaque number. For each sample, 9 repeats were performed to assess the antiviral activity.
The antiviral activity performance was measured according to our previous work. Briefly, 10 decimal serial dilutions of the virus suspension were prepared by LB phage. The aqueous suspensions for the E. coli and T4 bacteriophage inactivation experiments contained sample surfaces with dimensions of 1*1 cm and T4 phage at 1.0×106 plaque-forming units (PFU)/mL. Next, the phages were incubated under humid conditions at room temperature (25° C.) in a dark room for 24 h. After incubation, the phages were harvested by shaking them with 2 mL SCDLP broth for 15 min to stop the incubation. The T4 in the SCDLP bacteriophage was diluted with LB phage 10-fold. Subsequently, samples and bacteria were mixed with 0.6% agarose. Then, the mixture was spread out on 1.5% LB agar to form a double agar layer. The plate was incubated at 37° C. for 18 h to form the plaques. The antiviral activity was defined and calculated as follows: The initial virus titer (NO) and the virus titer after incubation (N) were calculated by counting the plaque number. For each sample, 9 repeats were performed to assess the antiviral activity.

Canine coronavirus (CCV) = type: cell-based; details: for log (TCID50/mL) of CCV: 3-layer coating, 3 h incubation, uncoated glass 4.77±0.12; for effect on CCV (in words): 3-layer coatings / controls
[3] = Water contact angle measurements of coated glass; type: physicochemical; details: for water contact angle after wiping: 3-layer coating, wiped at a load of 1 g
Description: Contact angle measurements were examined by using a Theta Lite optical tensiometer (Attension, Finland). Each experimental measurement consisted of three repeats.
(§1) To examine the coating stabilities, peptide coatings were immersed into TDW for 5 min or washed with 2 mL TDW three times and then dried at room temperature. X-ray photoelectron spectroscopy (XPS) analyses were performed for the immersed and washed coatings. Moreover, peptide coatings were wiped with a finger at a load of 1 g and then water contact angle measurements were performed using the same method as described in the Contact angle measurements section.

[4] = Stability of peptide coatings (XPS after immersing or washing); type: physicochemical; details: 3-layer coating
Description: X-ray photoelectron spectroscopy (XPS) analyses were performed by using an AXIS Ultra X-ray photoelectron spectrometer (Kratos Analytical, Ltd., Manchester, UK). The sample's take-off angle was 90°. The vacuum pressure in the analyzing chamber was maintained at 2×10^−9 Torr. High-resolution XPS spectra were collected for F is, O is, C is, and N is peaks with 20 eV pass energy and 0.1 eV step size. Data analyses were carried out using Kratos Vision data reducing processing software (Kratos Analytical, Ltd.) and Casa XPS (Casa Software, Ltd.).
as §1

fruit and plant viruses = experiment: Antiviral activity against fruit viruses
Description: The potential antiviral activity of DOPA-Phe(Br)—OH against fruit viruses and other microbial sources was also investigated.

[5] = Table 1, tripeptide assemblies, single amino acids and metal nanoparticles, 24 h incubation

NC(=O)[C@H](Cc1ccc(F)cc1)NC(=O)[C@@H](N)Cc1ccc(O)c(O)c1 [DOPA-Phe(4F)-NH2] (H-[Dopa]-[Phe(4-F)]-NH2)
antiviral activity against T4 bacteriophage (in words) (T4 bacteriophage [1]; in solution): exhibited antiviral activity | Antiviral MIC (T4 bacteriophage [1]; in solution, T4 bacteriophage): 62.5 µg/mL | virus titer of bacteriophage T4 on dipeptide coatings (T4 bacteriophage [2]): no viruses were detected | reduction of the viral titer by dipeptide coatings (T4 bacteriophage [2]): ~4 logs

COC(=O)[C@H](Cc1ccc(F)cc1)NC(=O)[C@H](Cc1ccc(F)cc1)NC(=O)[C@@H](N)Cc1ccc(O)c(O)c1 [DOPA-Phe(4F)-Phe(4F)-OMe] (H-[Dopa]-[Phe(4-F)]-[Phe(4-F)]-OMe; N-terminus assumed)
Antiviral MIC (T4 bacteriophage [1]; [5]): 31 µg/mL | log (TCID50/mL) of CCV (Canine coronavirus (CCV)): below the detection limit | water contact angle ([3]; 1 layer on glass, bare glass 12±2°): 23±2 ° | water contact angle ([3]; 2 layers on glass): 34±2 ° | water contact angle after wiping [3]: 33±1 ° | water contact angle ([3]; 3 layers on glass): 38±4 ° | reduction of viral titer compared with bare glass (T4 bacteriophage [2]; 1 layer coating): 79% | reduction rate (log (N/No)) of virus titers (T4 bacteriophage [2]; 1 layer coating): −0.7 | viral titer of T4 bacteriophage (T4 bacteriophage [2]; 1 layer coating on glass): 2610±369 PFU/mL | reduction of viral titer compared with bare glass (T4 bacteriophage [2]; 2 layers coating): 91% | reduction rate (log (N/No)) of virus titers (T4 bacteriophage [2]; 2 layers coating): −1.1 | viral titer of T4 bacteriophage (T4 bacteriophage [2]; 2 layers coating on glass): 1111±201 PFU/mL | reduction of virus titers compared to the glass surfaces (T4 bacteriophage [2]; 3-layer coating): 3 log | reduction of virus titers compared to the stock solution (T4 bacteriophage [2]; 3-layer coating): 6 log | virus titer of T4 bacteriophage (T4 bacteriophage [2]): 3±6 PFU/mL | reduction of viral titer compared with bare glass (T4 bacteriophage [2]; 3 layer coating): 99.9% | reduction rate (log (N/No)) of virus titers (T4 bacteriophage [2]; 3 layers coating): −3.7 | XPS signals after immersing in TDW for 5 min or washing three times [4]: did not decrease

NC(=O)[C@H](Cc1ccccc1)NC(=O)[C@@H](N)Cc1ccc(O)c(O)c1 [DOPA-Phe-NH2] (H-[Dopa]-Phe-NH2; N-terminus assumed)
Antiviral MIC (T4 bacteriophage [1]; 24 h): 125.00 µg/mL | antiviral activity against T4 bacteriophage (in words) (T4 bacteriophage [1]; in solution): exhibited antiviral activity | Antiviral MIC (T4 bacteriophage [1]; in solution, T4 bacteriophage): 125 µg/mL | virus titer of bacteriophage T4 on dipeptide coatings (T4 bacteriophage [2]): no viruses were detected | reduction of the viral titer by dipeptide coatings (T4 bacteriophage [2]): ~4 logs

COC(=O)[C@H](Cc1ccccc1)NC(=O)[C@H](Cc1ccccc1)NC(=O)[C@@H](N)Cc1ccc(O)c(O)c1 [DOPA-Phe-Phe-OMe] (H-[Dopa]-Phe-Phe-OMe; N-terminus assumed)
Antiviral MIC (T4 bacteriophage [1]; [5]): 62 µg/mL | log (TCID50/mL) of CCV (Canine coronavirus (CCV)): below the detection limit | water contact angle after wiping [3]: 25±2 ° | water contact angle ([3]; 3 layers on glass): 29±1 ° | reduction of virus titers compared to the glass surfaces (T4 bacteriophage [2]; 3-layer coating): 0.2 log | virus titer of T4 bacteriophage (T4 bacteriophage [2]): 8029±205 PFU/mL | reduction rate (log (N/No)) of virus titers (T4 bacteriophage [2]; 3 layers coating): −0.2 | XPS signals after immersing in TDW for 5 min or washing three times [4]: did not change appreciably

N[C@@H](Cc1ccc(O)c(O)c1)C(=O)O [L-DOPA, 3,4-dihydroxy-L-phenylalanine]
antiviral activity against T4 bacteriophage (in words) (T4 bacteriophage [1]; in solution, listed as DOPA): did not show any antiviral activity | log (TCID50/mL) of CCV (Canine coronavirus (CCV)): 4.37±0.31 log (TCID50/mL) | effect on CCV (in words) (Canine coronavirus (CCV)): do not appreciably affect the viability of CCV | effect on CCV (in words) (Canine coronavirus (CCV); listed as DOPA): did not show any antiviral activity | antiviral activity of drop-casted controls against T4 bacteriophage (in words) (T4 bacteriophage [2]; drop-casted three times / deposited on glass, compared to a glass surface): did not decrease the viral titers

N[C@@H](Cc1ccc(F)cc1)C(=O)O [L-Phe(4F), 4-Fluoro-L-phenylalanine]
antiviral activity against T4 bacteriophage (in words) (T4 bacteriophage [1]; in solution): did not decrease the viral titer | antiviral activity against T4 bacteriophage (in words) (T4 bacteriophage [1]; in solution, listed as 4-Fluoro-L-phenylalanine): no antiviral activity

N[C@@H](Cc1ccccc1)C(=O)O [L-Phe, L-phenylalanine]
antiviral activity against T4 bacteriophage (in words) (T4 bacteriophage [1]; in solution, listed as L-Phenylalanine): no antiviral activity | effect on CCV (in words) (Canine coronavirus (CCV)): did not show any antiviral activity

DOPA-Phe(Br)—NH2
eradication of fruit and plant viruses (fruit and plant viruses): capable of eradicating fruit and plant viruses

DOPA-Phe(Br)—OH
eradication of fruit and plant viruses (fruit and plant viruses): capable of eradicating fruit and plant viruses

H-Phe-Phe-OH [Diphenylalanine]
antiviral activity against T4 bacteriophage (in words) (T4 bacteriophage [1]; in solution, listed as Phe-Phe): did not decrease the viral titer | antiviral activity against T4 bacteriophage (in words) (T4 bacteriophage [1]; in solution, listed as diphenylalanine): did not show any antiviral activity | log (TCID50/mL) of CCV (Canine coronavirus (CCV)): 4.67±0.42 log (TCID50/mL) | effect on CCV (in words) (Canine coronavirus (CCV)): do not appreciably affect the viability of CCV; also recorded: did not show any antiviral activity | antiviral activity of drop-casted controls against T4 bacteriophage (in words) (T4 bacteriophage [2]): did not decrease the viral titers; also recorded: did not exhibit antiviral activity

Phe(4F)-Phe(4F)—OMe [Phe(4F)-Phe(4F)-Ome]
antiviral activity against T4 bacteriophage (in words) (T4 bacteriophage [1]; in solution): did not decrease the viral titer
